Common to all, as to format: functional
The subject of experiment [1] is Pseudomonas aeruginosa. Description: Antibacterial activity against tatC deficient Pseudomonas aeruginosa TNP080.
The subject of experiment [2] is Pseudomonas aeruginosa. Description: Antibacterial activity against tatC deficient Pseudomonas aeruginosa TNP080 transformant harboring pPlcMexA carrying chimeric mexA gene with plcH signal sequence.
Experiment [3] relates to Pseudomonas aeruginosa. Put plainly: Antibacterial activity against tatC deficient Pseudomonas aeruginosa TNP080 transformant harboring pTatPlcMexA carrying entire tatC gene and the chimeric mexA gene.
Experiment [4] concerns Pseudomonas aeruginosa. Description: Antibacterial activity against mexA deficient Pseudomonas aeruginosa TNP070.
Experiment [5] concerns Pseudomonas aeruginosa. Put plainly: Antibacterial activity against mexA deficient Pseudomonas aeruginosa TNP070 transformant harboring pPlcMexA carrying chimeric mexA gene with plcH signal sequence.
Experiment [6] concerns Pseudomonas aeruginosa. Description: Antibacterial activity against mexA deficient Pseudomonas aeruginosa TNP070 transformant harboring pMEXA1 carrying wild type mexA gene.
Experiment [7] deals with Pseudomonas aeruginosa. Description: Antibacterial activity against tatC deficient Pseudomonas aeruginosa TNP080 transformant harboring pMEXA1 carrying wild type mexA gene.
Experiment [8] concerns Pseudomonas aeruginosa. Description: Antibacterial activity against Pseudomonas aeruginosa PAO4290 harboring leu-10 argF10 aph-9004 FP(-).

In brackets after ≈: the same amount, converted by molar mass.

The term MIC denotes the lowest concentration found to suppress growth. The low end stands for greater potency, the high end for weaker potency. In the case of `C[C@H]1[C@H](NC(=O)/C(=N\OC(C)(C)C(=O)O)c2csc(N)n2)C(=O)N1S(=O)(=O)O` [AZTREONAM], the MIC in the experiment on Pseudomonas aeruginosa [1] turned out to be 0.13 µg/mL (≈ 0.299 µM); in the experiment with Pseudomonas aeruginosa [2], 0.25 µg/mL (≈ 0.574 µM); against Pseudomonas aeruginosa [3] it was 2 µg/mL (≈ 4.59 µM); in the experiment with Pseudomonas aeruginosa [4], 0.25 µg/mL (≈ 0.574 µM); in the experiment on Pseudomonas aeruginosa [5], 2 µg/mL (≈ 4.59 µM); in the experiment with Pseudomonas aeruginosa [6] it was 2 µg/mL (≈ 4.59 µM). The values for the MIC with Pseudomonas aeruginosa [7] and against Pseudomonas aeruginosa [8] were 2 µg/mL (≈ 4.59 µM) and 4 µg/mL (≈ 9.19 µM), respectively.

In the case of `O=C(N[C@H](CO)[C@H](O)c1ccc([N+](=O)[O-])cc1)C(Cl)Cl` [CHLORAMPHENICOL], the MIC against Pseudomonas aeruginosa [1] amounted to 4 µg/mL (≈ 12.4 µM); in the experiment on Pseudomonas aeruginosa [2] it was 4 µg/mL (≈ 12.4 µM); in the experiment on Pseudomonas aeruginosa [3] it was 32 µg/mL (≈ 99 µM); against Pseudomonas aeruginosa [4], 8 µg/mL (≈ 24.8 µM); against Pseudomonas aeruginosa [5], 32 µg/mL (≈ 99 µM); in the experiment with Pseudomonas aeruginosa [6], 32 µg/mL (≈ 99 µM). The MIC is 32 µg/mL (≈ 99 µM) with Pseudomonas aeruginosa [7] and 64 µg/mL (≈ 198 µM) in the experiment on Pseudomonas aeruginosa [8].

Source of the values: ChEMBL document CHEMBL1255411, “Tat pathway-mediated translocation of the sec pathway substrate protein MexA, an inner membrane component of the MexAB-OprM xenobiotic extrusion pump in Pseudomonas aeruginosa” (2010).
